In patent publication US12358886B2, “Heterocyclic compounds for use in the treatment of cancer” (Artios Pharma Limited, priority 2019, dated 2025):

target: Polθ protein (amino acids 2-2590) (Homo sapiens, UniProt O75417); test: Polθ full length enzyme potency assay (PicoGreen); settings: Polθ IC50 (nM), full length N-His, C-term FLAG tagged Polθ, PicoGreen fluorescence, 12 point concentration response
Sequence (O75417 2-2590): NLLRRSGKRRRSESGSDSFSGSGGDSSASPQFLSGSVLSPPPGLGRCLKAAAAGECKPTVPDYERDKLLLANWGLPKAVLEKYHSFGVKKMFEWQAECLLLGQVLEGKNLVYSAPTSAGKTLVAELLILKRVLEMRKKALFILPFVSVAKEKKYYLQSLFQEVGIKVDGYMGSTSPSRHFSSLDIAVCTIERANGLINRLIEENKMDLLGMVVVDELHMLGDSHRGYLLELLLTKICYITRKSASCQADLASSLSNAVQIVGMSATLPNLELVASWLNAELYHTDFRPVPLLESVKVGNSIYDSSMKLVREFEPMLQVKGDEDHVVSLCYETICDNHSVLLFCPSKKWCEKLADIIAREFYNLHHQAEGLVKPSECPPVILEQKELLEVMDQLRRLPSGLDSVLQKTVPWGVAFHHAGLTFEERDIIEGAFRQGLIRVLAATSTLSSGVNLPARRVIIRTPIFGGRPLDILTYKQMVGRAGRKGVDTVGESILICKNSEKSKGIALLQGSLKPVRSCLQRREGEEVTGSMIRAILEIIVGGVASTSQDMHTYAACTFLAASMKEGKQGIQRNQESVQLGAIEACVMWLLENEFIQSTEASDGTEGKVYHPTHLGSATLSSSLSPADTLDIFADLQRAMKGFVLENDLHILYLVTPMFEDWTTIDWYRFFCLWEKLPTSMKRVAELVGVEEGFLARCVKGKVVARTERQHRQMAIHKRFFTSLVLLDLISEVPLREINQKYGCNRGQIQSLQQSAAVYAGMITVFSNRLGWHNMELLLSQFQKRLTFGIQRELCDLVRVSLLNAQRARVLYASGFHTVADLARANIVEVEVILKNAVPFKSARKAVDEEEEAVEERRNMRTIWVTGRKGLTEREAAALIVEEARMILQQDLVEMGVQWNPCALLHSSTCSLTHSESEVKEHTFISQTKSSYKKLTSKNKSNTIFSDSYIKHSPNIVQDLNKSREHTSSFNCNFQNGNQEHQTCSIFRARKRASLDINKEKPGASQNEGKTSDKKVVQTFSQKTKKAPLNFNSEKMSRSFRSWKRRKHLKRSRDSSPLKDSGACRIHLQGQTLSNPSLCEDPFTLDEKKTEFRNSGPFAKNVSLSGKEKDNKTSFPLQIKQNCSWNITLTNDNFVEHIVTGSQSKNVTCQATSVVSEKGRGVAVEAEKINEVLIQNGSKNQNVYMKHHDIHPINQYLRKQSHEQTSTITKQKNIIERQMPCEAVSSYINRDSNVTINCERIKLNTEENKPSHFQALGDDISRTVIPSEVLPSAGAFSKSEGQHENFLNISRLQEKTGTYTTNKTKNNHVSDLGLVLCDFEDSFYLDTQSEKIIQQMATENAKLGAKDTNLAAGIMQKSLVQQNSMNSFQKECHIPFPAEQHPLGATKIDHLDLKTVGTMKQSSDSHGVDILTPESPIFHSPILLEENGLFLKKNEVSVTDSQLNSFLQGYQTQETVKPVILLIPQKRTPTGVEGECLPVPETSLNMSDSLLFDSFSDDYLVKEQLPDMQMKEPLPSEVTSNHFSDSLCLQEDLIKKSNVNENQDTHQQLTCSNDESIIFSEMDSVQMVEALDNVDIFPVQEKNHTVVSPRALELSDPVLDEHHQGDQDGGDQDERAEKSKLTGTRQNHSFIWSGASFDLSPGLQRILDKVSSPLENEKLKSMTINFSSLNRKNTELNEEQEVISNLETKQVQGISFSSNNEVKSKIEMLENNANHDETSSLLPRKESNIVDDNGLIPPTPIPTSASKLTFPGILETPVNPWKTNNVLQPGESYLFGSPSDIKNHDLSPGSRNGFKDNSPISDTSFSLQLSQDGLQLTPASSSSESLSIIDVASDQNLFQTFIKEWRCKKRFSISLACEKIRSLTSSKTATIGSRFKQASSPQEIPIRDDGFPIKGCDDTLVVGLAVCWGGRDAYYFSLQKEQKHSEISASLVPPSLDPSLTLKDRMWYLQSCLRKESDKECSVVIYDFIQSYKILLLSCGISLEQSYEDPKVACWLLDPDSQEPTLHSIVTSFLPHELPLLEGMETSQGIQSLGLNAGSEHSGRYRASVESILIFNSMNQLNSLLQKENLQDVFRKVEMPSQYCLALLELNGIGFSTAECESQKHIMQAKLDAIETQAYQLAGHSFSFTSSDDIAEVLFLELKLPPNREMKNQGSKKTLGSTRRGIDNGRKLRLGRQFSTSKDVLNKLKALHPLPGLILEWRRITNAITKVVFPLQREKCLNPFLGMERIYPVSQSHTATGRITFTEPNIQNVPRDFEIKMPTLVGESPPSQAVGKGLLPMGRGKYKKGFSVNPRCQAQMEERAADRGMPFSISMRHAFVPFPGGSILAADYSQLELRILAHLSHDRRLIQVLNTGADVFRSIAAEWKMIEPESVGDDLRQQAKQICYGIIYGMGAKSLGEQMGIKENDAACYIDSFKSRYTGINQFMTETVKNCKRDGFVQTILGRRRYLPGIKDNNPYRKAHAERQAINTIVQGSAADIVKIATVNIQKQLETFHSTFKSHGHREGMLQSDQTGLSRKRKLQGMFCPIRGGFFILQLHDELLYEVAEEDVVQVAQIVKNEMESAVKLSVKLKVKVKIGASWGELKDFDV
Protocol: Polθ Full Length Enzyme Potency Assay
PicoGreen assay was used to measure the ability of compounds to inhibit the activity of Polθ in vitro. […] DMSO concentration was maintained at 1% by back filling with DMSO solution. […] This was dispensed into each well of the compound plate using a VIAFLO 16 channel manual pipette (Integra) and pre-incubated at rt for 30 min. 3 μL of 2× working solution of dNTPs (40 μM) (dATP, dCTP, dGTP, dTTP; Sigma D6500, D4635, D4010, T0251) diluted in assay buffer was then added and the reaction incubated for 60 min at rt. The reaction was stopped by addition of 10 mM EDTA, 25 mM Tris pH 7.5 and 1:200 dilution of PicoGreen dye (Invitrogen P7581).

SMILES | IC50 [nM]
CCN(C(=O)[C@@H]1C[C@H](N(C)[C@@H]2CCOC[C@H]2O)CN1c1cc(C(F)(F)F)cc(C)n1)c1ccc(F)c(F)c1 [Example 139, (2S,4S)—N-(3,4-Difluorophenyl)-N-ethyl-4-(((3S,4R)-3-hydroxytetrahydro-2H-pyran-4-yl)(methyl)amino)-1-(6-methyl-4-(trifluoromethyl)pyridin-2-yl)pyrrolidine-2-carboxamide] | 164
Cc1cc(C(F)(F)F)cc(N2C(=O)[C@@H](O)[C@@H](O)[C@H]2C(=O)N(C)c2ccc(F)c(C)n2)n1 [Example 170, (2S,3S,4S)—N-(5-Fluoro-6-methylpyridin-2-yl)-3,4-dihydroxy-N-methyl-1-(6-methyl-4-(trifluoromethyl)pyridin-2-yl)-5-oxopyrrolidine-2-carboxamide] | 193
Cc1cc(C)c(C#N)c(N2C[C@@H](O)C[C@H]2C(=O)N(C)c2ccccc2)n1 [Example 7, (2S,4S)-1-(3-Cyano-4,6-dimethylpyridin-2-yl)-4-hydroxy-N-methyl-N-phenylpyrrolidine-2-carboxamide] | 438
Cc1cc(C(F)(F)F)cc(N2C(=O)NC[C@H]2C(=O)N(C)c2ccc(F)c(Cl)c2)n1 [Example 156, (S)—N-(3-Chloro-4-fluorophenyl)-N-methyl-3-(6-methyl-4-(trifluoromethyl)pyridin-2-yl)-2-oxoimidazolidine-4-carboxamide] | 4
Cc1cc(C(F)(F)F)cc(N2C(=O)N(CCN3CCCC3CO)C[C@H]2C(=O)N(C)c2ccc(F)c(Cl)c2)n1 (single isomer, unassigned; isomer 2) [Example 199] | 32
Cc1cc(C(F)(F)F)cc(N2C(=O)OC[C@H]2C(=O)N(C)c2ccc(Cl)c(Cl)c2)n1 [Example 89, (S)-N-(3,4-Dichlorophenyl)-N-methyl-3-(6-methyl-4-(trifluoromethyl)-pyridin-2-yl)-2-oxooxazolidine-4-carboxamide] | 16
Cc1cc(C(F)(F)F)cc(N2C(=O)OC[C@H]2C(=O)N(C)c2ccc(F)c(Cl)c2)n1 [Example 83, (S)—N-(3-Chloro-4-fluorophenyl)-N-methyl-3-(6-methyl-4-(trifluoromethyl)pyridin-2-yl)-2-oxooxazolidine-4-carboxamide] | 16
Cc1cc(C(F)(F)F)cc(N2C(=O)NC[C@H]2C(=O)N(C)c2ccc3sccc3n2)n1 [Example 237, (S)—N-Methyl-3-(6-methyl-4-(trifluoromethyl)pyridin-2-yl)-2-oxo-N-(thieno[3,2-b]pyridin-5-yl)imidazolidine-4-carboxamide] | 37
Cc1cc(C(C)C)cc(N2C(=O)OC[C@H]2C(=O)N(C)c2ccc(F)c(Cl)c2)n1 [Example 118, (S)—N-(3-Chloro-4-fluorophenyl)-3-(4-isopropyl-6-methylpyridin-2-yl)-N-methyl-2-oxooxazolidine-4-carboxamide] | 25
Cc1cc(C(F)(F)F)cc(N2C(=O)N(CCN3CCC(C#N)CC3)C[C@H]2C(=O)N(C)c2ccc(F)c(Cl)c2F)n1 [Example 211, (S)-N-(3-Chloro-2,4-difluorophenyl)-1-(2-(4-cyanopiperidin-1-yl)ethyl)-N-methyl-3-(6-methyl-4-(trifluoromethyl)pyridin-2-yl)-2-oxoimidazolidine-4-carboxamide] | 5
Cc1cc(C(F)(F)F)cc(N2C(=O)OC[C@H]2C(=O)N(C)c2ccc(F)c(O)c2)n1 [Example 106, (S)—N-(4-Fluoro-3-hydroxyphenyl)-N-methyl-3-(6-methyl-4-(trifluoromethyl)pyridin-2-yl)-2-oxooxazolidine-4-carboxamide] | 324
Cc1cc(C(F)(F)F)cc(N2C(=O)[C@@H](O)[C@@H](O)[C@H]2C(=O)N(C)c2ccc3cc[nH]c3n2)n1 [Example 166, (2S,3S,4S)-3,4-Dihydroxy-N-methyl-1-(6-methyl-4-(trifluoromethyl)pyridin-2-yl)-5-oxo-N-(1H-pyrrolo[2,3-b]pyridin-6-yl)pyrrolidine-2-carboxamide] | 7
Cc1cc(C(F)(F)F)cc(N2C(=O)N(CC3(CO)COC3)C[C@H]2C(=O)N(C)c2ccc(F)c(Cl)c2F)n1 [Example 186, (S)-N-(3-Chloro-2,4-difluoro-phenyl)-1-((3-(hydroxymethyl)-oxetan-3-yl)methyl)-N-methyl-3-(6-methyl-4-(trifluoromethyl)-pyridin-2-yl)-2-oxoimidazolidine-4-carboxamide] | 9
C=Cc1cc(N(C)C(=O)[C@@H]2COC(=O)N2c2cc(C(F)(F)F)cc(C)n2)ccc1F [Example 109, (S)—N-(4-Fluoro-3-vinylphenyl)-N-methyl-3-(6-methyl-4-(trifluoromethyl)pyridin-2-yl)-2-oxooxazolidine-4-carboxamide] | 49
Cc1cc(C(F)(F)F)cc(N2C(=O)N(CC(O)CN3CCC(F)C3)C[C@H]2C(=O)N(C)c2ccc(F)c(Cl)c2F)n1 (stereo in doubt) [Example 215, (4S)—N-(3-Chloro-2,4-difluorophenyl)-1-(3-((R)-3-fluoropyrrolidin-1-yl)-2-hydroxy-propyl)-N-methyl-3-(6-methyl-4-(trifluoromethyl)pyridin-2-yl)-2-oxoimidazolidine-4-carboxamide] | 8
CCN(C(=O)[C@@H]1[C@H](O)[C@H](O)CN1c1nc(C)cc(C(F)(F)F)c1C#N)c1ccc(F)c(F)c1 [Example 56, (2S,3S,4R)-1-(3-Cyano-6-methyl-4-(trifluoromethyl)pyridin-2-yl)-N-(3,4-difluorophenyl)-N-ethyl-3,4-dihydroxypyrrolidine-2-carboxamide] | 42
Cc1cc(C(F)(F)F)cc(N2C(=O)N(CCN(C)C)C[C@H]2C(=O)N(C)c2ccc(F)c(Cl)c2)n1 [Example 182, (S)-N-(3-Chloro-4-fluorophenyl)-1-(2-(dimethylamino)ethyl)-N-methyl-3-(6-methyl-4-(trifluoromethyl)pyridin-2-yl)-2-oxoimidazolidine-4-carboxamide] | 61
Cc1cc(C(F)(F)F)cc(N2C(=O)OC[C@H]2C(=O)N(C)c2ccc(F)c(C)c2)n1 [Example 86, (S)-N-(4-Fluoro-3-methylphenyl)-N-methyl-3-(6-methyl-4-(trifluoromethyl)pyridin-2-yl)-2-oxooxazolidine-4-carboxamide] | 9
C=C(C)c1cc(C)nc(N2C(=O)OC[C@H]2C(=O)N(C)c2ccc(F)c(Cl)c2)c1 [Example 117, (S)—N-(3-Chloro-4-fluorophenyl)-N-methyl-3-(6-methyl-4-(prop-1-en-2-yl)pyridin-2-yl)-2-oxooxazolidine-4-carboxamide] | 61
Cc1cc(C(F)(F)F)cc(N2C(=O)NC[C@H]2C(=O)N(C)c2ccc3cnn(C)c3c2)n1 [Example 235, (S)—N-Methyl-N-(1-methyl-1H-indazol-6-yl)-3-(6-methyl-4-(trifluoromethyl)pyridin-2-yl)-2-oxoimidazolidine-4-carboxamide] | 27
CCc1cc(N2C[C@@H](O)C[C@H]2C(=O)N(C)c2cccc(C)c2)ncc1C [Example 35, (2S,4S)-1-(4-Ethyl-5-methylpyridin-2-yl)-4-hydroxy-N-methyl-N-(m-tolyl)pyrrolidine-2-carboxamide] | 620
CCN(C(=O)[C@@H]1C[C@H](N2CCO[C@@H](CO)C2)CN1c1nc(C)cc(C(F)(F)F)c1C#N)c1ccc(F)c(Cl)c1 [Example 155, (2S,4S)-N-(3-Chloro-4-fluorophenyl)-1-(3-cyano-6-methyl-4-(trifluoromethyl)pyridin-2-yl)-N-ethyl-4-((R)-2-(hydroxymethyl)morpholino)pyrrolidine-2-carboxamide] | 15
Cc1cccc(N(C)C(=O)[C@@H]2C[C@H](O)CN2c2cc(C(F)(F)F)cc(C)n2)c1 [Example 27, (2S,4S)-4-Hydroxy-N-methyl-1-(6-methyl-4-(trifluoromethyl)pyridin-2-yl)-N-(m-tolyl)pyrrolidine-2-carboxamide] | 12
Cc1cc(C(F)(F)F)cc(N2C(=O)N(CC(O)CN3CCOCC3)C[C@H]2C(=O)N(C)c2ccc(F)c(Cl)c2F)n1 (stereo partly drawn) [Example 217, (4S)—N-(3-Chloro-2,4-difluorophenyl)-1-(2-hydroxy-3-morpholinopropyl)-N-methyl-3-(6-methyl-4-(trifluoromethyl)pyridin-2-yl)-2-oxoimidazolidine-4-carboxamide] | 7

same assay, conditions: read-out: Polθ IC50; full length N-His, C-term FLAG tagged Polθ, PicoGreen fluorescence, 12 point concentration response

SMILES | IC50 [nM]
Cc1cc(C(F)(F)F)cc(N2C(=O)OC[C@H]2C(=O)N(C)c2cc(Cl)ccc2F)n1 [Example 96, (S)-N-(5-Chloro-2-fluorophenyl)-N-methyl-3-(6-methyl-4-(trifluoromethyl)pyridin-2-yl)-2-oxooxazolidine-4-carboxamide] | 24
Cc1cc(C(F)(F)F)cc(N2C(=O)OC[C@H]2C(=O)N(c2ccc(F)c(Cl)c2)C(C)C)n1 [Example 104, (S)-N-(3-Chloro-4-fluorophenyl)-N-isopropyl-3-(6-methyl-4-(trifluoromethyl)pyridin-2-yl)-2-oxooxazolidine-4-carboxamide] | 35
